According to PubChem BioAssay (NCI):
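Interpolation was linear, between the two tested concentrations surrounding the appropriate level; five concentrations were tested over 48 hours in 96-well plates. GI50: concentration for 50% inhibition of growth. The concentration for full growth arrest is given as TGI.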

Experiments:
Test in all cases: DTP human tumour cell line panel, 48 h
[1] = tested on: CAKI-1 renal
[2] = tested on: SF-539 CNS
[3] = tested on: SF-295 CNS
[4] = tested on: OVCAR-8 ovarian
[5] = tested on: UO-31 renal
[6] = tested on: 786-0 renal
[7] = tested on: OVCAR-4 ovarian
[8] = tested on: MALME-3M melanoma
[9] = tested on: LOX IMVI melanoma
[10] = tested on: SK-MEL-28 melanoma

Structure (SMILES) | GI50 [1] [µM] | TGI [1] [µM] | GI50 [2] [µM] | TGI [2] [µM] | GI50 [3] [µM] | TGI [3] [µM] | GI50 [4] [µM] | TGI [4] [µM] | GI50 [5] [µM] | TGI [5] [µM] | GI50 [6] [µM] | TGI [6] [µM] | GI50 [7] [µM] | TGI [7] [µM] | GI50 [8] [µM] | TGI [8] [µM] | GI50 [9] [µM] | TGI [9] [µM] | GI50 [10] [µM] | TGI [10] [µM]
O=S(=O)(Nc1ccccc1)c1ccc(C2CC3(Cl)C(Cl)=C(Cl)C2(Cl)C3(Cl)Cl)cc1 (stereo unspecified) | 2.16 | 6.27 | 2.32 | 5.79 | 2.21 | 5.97 | 3.52 | 10.9 | 2.09 | 6.72 | 2.15 | 4.23 | 3.37 | 11.1 | 2.53 | 7.11 | 1.84 | 3.47 |  | 
C=CCN(CC=C)Cc1c[nH]c2ccccc12 | 19.8 | > 100 |  |  | 21 | > 100 | 11.9 | 69 | 35.2 | > 100 | 4.33 | 14.7 | > 100 | > 100 | 7.83 | 67.7 | 27.4 | > 100 | > 100 | > 100
COc1cc2c(cc1OCCN1CCN(CCN3C(=O)c4cccc5cccc(c45)C3=O)CC1)N=C[C@@H]1CCCN1C2=O | 13.6 | 30.2 | 20.8 | 45.6 | 22.9 | 41.1 | 19.9 | 44.3 | 18.5 | 32.5 | 18.2 | 33.4 | 24.6 | 47.3 |  |  | 32.7 | > 100 | 32.5 | 77.7
COc1ccc2cc3n(c(=O)c2c1)CCc1c-3cc(OC)c(OC)c1OC |  | > 100 |  | > 100 |  | > 100 |  | > 100 |  | > 100 |  | > 100 |  | > 100 |  | > 100 |  |  |  | > 100
N#CC1=C(N)Oc2c(ccc3ccccc23)C1c1cc2ccccc2n2nnnc12 (stereo unspecified) | 5.74 | > 100 |  |  | 0.832 | > 100 | 2.85 | > 100 | 0.725 | > 100 | 1.28 | > 100 | 18.7 | > 100 | 0.852 | > 100 | 0.966 | > 100 | 4.04 | > 100
CCN1CCN(CC(=O)Nc2nc3ccc(NCc4ccc(Br)cc4)cc3s2)CC1 | 1.84 | 4.55 | 1.75 | 3.24 |  |  | 3.25 | > 100 | 1.78 | 3.4 | 1.85 | 3.5 | 3.19 | 26.8 | 1.66 | 3.19 |  |  | 1.92 | 3.76
CNS(=O)(=O)NNS(=O)(=O)c1ccc(C)cc1 |  | > 100 |  | > 100 |  | > 100 |  | > 100 |  | > 100 |  | > 100 |  | > 100 |  | > 100 |  |  |  | > 100
